The target in assay [1] is T1, HCV polymerase (NS5B) type 1a (Hepatitis C virus genotype 1a, UniProt P26664).
T1 construct: made in house; host or cells: Escherichia coli (by the 'similar method' of the 1b enzyme)
The assay can be described thus: Assay of enzyme (HCV polymerase) inhibitory activity, type 1a enzyme. Type of assay: biochemical, HCV type 1a (cloned from the blood of patients). The note with it: HCV polymerase inhibitory activity (IC50), 1a, type 1a enzyme 1.5 μg/ml, 25° C., 60 min. In outline: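 IC50 values derive from radioactivity of newly synthesized RNA with versus without test compound. The enzyme was C-terminally truncated type 1a NS5B, 1.5 μg/ml, run 60 min at 25° C with 3H-UTP-labelled nucleotides.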

Assay [2] addresses T2, HCV polymerase (NS5B) type 1b (Hepatitis C virus genotype 1b, UniProt P26663).
T2 construct: a region encoding NS5B (J Virol 1991 March, 65(3), 1105-13, 544 amino acids after deletion of 47 amino acids on the C-terminal); 6xHis (C); made in house; host or cells: Escherichia coli
The assay can be described thus: Assay of enzyme (HCV polymerase) inhibitory activity, type 1b enzyme. Type of assay: biochemical, HCV BK strain (type 1b). To be noted: HCV polymerase inhibitory activity (IC50), 1b, type 1b enzyme 0.5 μg/ml, 25° C., 60 min. In outline: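 Polymerase activity was followed as radiolabelled UTP incorporation by E. coli-expressed, His-tagged NS5B of HCV type 1b lacking its last 47 residues. Conditions: 2 μM UTP, 50 μM other NTPs, Mg2+ buffer at pH 7.5, 25 °C for 60 min. Inhibition relative to compound-free reactions gave IC50.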

Each structure is given as a SMILES string. Counter-ions that a name gives are not always drawn.

A word on the IC50: it is the concentration that inhibits the measured activity by half. The low end stands for greater potency, the high end for weaker potency.

`CC(=O)N1CCN(S(=O)(=O)c2ccc3c(c2)N(C)CCC3)[C@@H](C(=O)NCc2ccc(C(C)C)cc2)C1` [Example 307, (R)-4-acetyl-1-(1-methyl-1,2,3,4-tetrahydro-quinoline-7-sulfonyl)-piperazine-2-carboxylic acid 4-isopropyl-benzylamide]: the IC50 was 0.1 to 1 µM in assay [1] and less than 0.1 µM in assay [2].
The matching figures for `CC(C)c1ccc(CNC(=O)[C@H]2CN(C(=O)C(N)=O)CCN2S(=O)(=O)c2ccc(C(F)(F)F)cc2)cc1` [Example 308, (R)-4-aminooxalyl-1-(4-trifluoromethyl-benzenesulfonyl)-piperazine-2-carboxylic acid 4-isopropyl-benzylamide]: greater than 1 µM and greater than 1 µM.
The matching figures for `CCOC(=O)Cc1nnn(CC(=O)N2CCN(S(=O)(=O)c3ccc(C(F)(F)F)cc3)[C@@H](C(=O)NCc3ccc(C(C)C)cc3)C2)n1` [Example 309, (2-{2-[(R)-3-(4-isopropyl-benzylcarbamoyl)-4-(4-trifluoromethyl-benzenesulfonyl)-piperazin-1-yl]-2-oxo-ethyl}-2H-tetrazol-5-yl)-acetic acid ethyl ester]: less than 0.1 µM and less than 0.1 µM.
Taken in the same sequence, the figures for `CC(C)c1ccc(CNC(=O)[C@H]2CN(C(=O)Cn3nnc(CC(=O)O)n3)CCN2S(=O)(=O)c2ccc(C(F)(F)F)cc2)cc1` [Example 310, (2-{2-[(R)-3-(4-isopropyl-benzylcarbamoyl)-4-(4-trifluoromethyl-benzenesulfonyl)-piperazin-1-yl]-2-oxo-ethyl}-2H-tetrazol-5-yl)-acetic acid] were 0.1 to 1 µM and less than 0.1 µM.
For `CCOC(=O)Cc1nnnn1CC(=O)N1CCN(S(=O)(=O)c2ccc(C(F)(F)F)cc2)[C@@H](C(=O)NCc2ccc(C(C)C)cc2)C1` [Example 311, (1-{2-[(R)-3-(4-isopropyl-benzylcarbamoyl)-4-(4-trifluoromethyl-benzenesulfonyl)-piperazin-1-yl]-2-oxo-ethyl}-1H-tetrazol-5-yl)-acetic acid ethyl ester], the IC50 in assay [1] and in assay [2] was 0.1 to 1 µM each time.
Regarding `CC(C)c1ccc(CNC(=O)[C@H]2CN(C(=O)Cn3nnnc3CC(=O)O)CCN2S(=O)(=O)c2ccc(C(F)(F)F)cc2)cc1` [Example 312, (1-{2-[(R)-3-(4-isopropyl-benzylcarbamoyl)-4-(4-trifluoromethyl-benzenesulfonyl)-piperazin-1-yl]-2-oxo-ethyl}-1H-tetrazol-5-yl)-acetic acid], the IC50 in assay [1] is greater than 1 µM; in assay [2] it was 0.1 to 1 µM.
Taken in the same sequence, the figures for `CC(C)c1ccc(CNC(=O)[C@H]2CN(C(=N)N)CCN2S(=O)(=O)c2ccc(C(F)(F)F)cc2)cc1` [Example 313, (R)-4-carbamimidoyl-1-(4-trifluoromethyl-benzenesulfonyl)-piperazine-2-carboxylic acid 4-isopropyl-benzylamide hydrochloride] were less than 0.1 µM and less than 0.1 µM.
With `CC(C)c1ccc(CNC(=O)[C@H]2CN(C(=O)Nc3ccnc(C(=O)O)c3)CCN2S(=O)(=O)c2ccc(C(F)(F)F)cc2)cc1` [Example 314, 4-{[(R)-3-(4-isopropyl-benzylcarbamoyl)-4-(4-trifluoromethyl-benzenesulfonyl)-piperazine-1-carbonyl]-amino}-pyridine-2-carboxylic acid hydrochloride], the concentration for half-maximal inhibition (IC50) in assay [1] and in assay [2] was 0.1 to 1 µM in each case.
With `CC(C)c1ccc(CNC(=O)[C@H]2CN(c3ncc(C(=O)O)s3)CCN2S(=O)(=O)c2ccc(C(F)(F)F)cc2)cc1` [Example 315, 2-[(R)-3-(4-isopropyl-benzylcarbamoyl)-4-(4-trifluoromethyl-benzenesulfonyl)-piperazin-1-yl]-thiazole-5-carboxylic acid], the IC50 was 0.1 to 1 µM in assay [1] and less than 0.1 µM in assay [2].
The matching figures for `CCOC(=O)CCCCCC(=O)N1CCN(S(=O)(=O)c2ccc(C(F)(F)F)cc2)[C@@H](C(=O)NCc2ccc(C(C)C)cc2)C1` [Example 316, 7-[(R)-3-(4-isopropyl-benzylcarbamoyl)-4-(4-trifluoromethyl-benzenesulfonyl)-piperazin-1-yl]-7-oxo-heptanoic acid ethyl ester]: 0.1 to 1 µM and 0.1 to 1 µM.
Regarding `CC(C)c1ccc(CNC(=O)[C@H]2CN(C(=O)CCCCCC(=O)O)CCN2S(=O)(=O)c2ccc(C(F)(F)F)cc2)cc1` [Example 317, 7-[(R)-3-(4-isopropyl-benzylcarbamoyl)-4-(4-trifluoromethyl-benzenesulfonyl)-piperazin-1-yl]-7-oxo-heptanoic acid], the IC50 in assay [1] and in assay [2] was 0.1 to 1 µM in each case.
On to `CC(C)c1ccc(CNC(=O)[C@H]2CN(C(=O)Nc3ccncc3)CCN2S(=O)(=O)c2ccc(OC(F)(F)F)cc2)cc1` [Example 318, (R)-4-(4-trifluoromethoxy-benzenesulfonyl)-piperazine-1,3-dicarboxylic acid 3-(4-isopropyl-benzylamide) 1-pyridin-4-ylamide], for which the IC50 in assay [1] and in assay [2] was less than 0.1 µM in each case.
On to `CCCc1ccc(S(=O)(=O)N2CCN(c3nc(C)c(C(=O)OC(C)(C)C)s3)C[C@@H]2C(=O)NCc2ccc(C(C)C)cc2)cc1` [Example 319, 2-[(R)-3-(4-isopropyl-benzylcarbamoyl)-4-(4-propyl-benzenesulfonyl)-piperazin-1-yl]-4-methyl-thiazole-5-carboxylic acid tert-butyl ester], for which the IC50 in assay [1] is greater than 1 µM; in assay [2], 0.1 to 1 µM.
Turning to `Cc1nc(N2CCN(S(=O)(=O)c3ccc(OC(F)(F)F)cc3)[C@@H](C(=O)NCc3ccc(C(C)C)cc3)C2)sc1C(=O)OC(C)(C)C` [Example 320, 2-[(R)-3-(4-isopropyl-benzylcarbamoyl)-4-(4-trifluoromethoxy-benzenesulfonyl)-piperazin-1-yl]-4-methyl-thiazole-5-carboxylic acid tert-butyl ester], the IC50 in assay [1] and in assay [2] was greater than 1 µM in each case.
Take `CCc1ccc(CNC(=O)[C@H]2CN(C(C)=O)CCN2S(=O)(=O)c2ccc(C(C)C)cc2)c(C)c1` [Example 321, (R)-4-acetyl-1-(4-isopropyl-benzenesulfonyl)-piperazine-2-carboxylic acid 4-ethyl-2-methyl-benzylamide]: the IC50 in assay [1] and in assay [2] was less than 0.1 µM in each case.
Take `Cc1nc(N2CCN(S(=O)(=O)c3ccc(OC(F)(F)F)cc3)[C@@H](C(=O)NCc3ccc(C(C)C)cc3)C2)sc1C(=O)O` [Example 322, 2-[(R)-3-(4-isopropyl-benzylcarbamoyl)-4-(4-trifluoromethoxy-benzenesulfonyl)-piperazin-1-yl]-4-methyl-thiazole-5-carboxylic acid]: the IC50 in assay [1] and in assay [2] was less than 0.1 µM throughout.
For `CC(=O)N1CCN(S(=O)(=O)c2ccc(C(C)C)cc2)[C@@H](C(=O)NCc2ccc(C3CC3)cc2C)C1` [Example 323, (R)-4-acetyl-1-(4-isopropyl-benzenesulfonyl)-piperazine-2-carboxylic acid 4-cyclopropyl-2-methyl-benzylamide], the IC50 in assay [1] and in assay [2] was less than 0.1 µM throughout.
As for `CC(=O)N1CCN(S(=O)(=O)c2ccc(OC(F)(F)F)c(CCC(=O)O)c2)[C@@H](C(=O)NCc2ccc(C(C)C)cc2)C1` [Example 324, 3-{5-[(R)-4-acetyl-2-(4-isopropyl-benzylcarbamoyl)-piperazine-1-sulfonyl]-2-trifluoromethoxy-phenyl}-propionic acid], the values for the IC50 in assay [1] and in assay [2] were less than 0.1 µM and 0.1 to 1 µM, respectively.
`CCOC(=O)c1cnc(N2CCN(S(=O)(=O)c3ccc(C(F)(F)F)cc3)[C@@H](C(=O)NCc3ccc(C(C)C)cc3)C2)nc1O` [Example 325, 4-hydroxy-2-[(R)-3-(4-isopropyl-benzylcarbamoyl)-4-(4-trifluoromethyl-benzenesulfonyl)-piperazin-1-yl]-pyrimidine-5-carboxylic acid ethyl ester]: the IC50 in assay [1] is greater than 1 µM; in assay [2], 0.1 to 1 µM.
Taken in the same sequence, the figures for `CC(C)c1ccc(CNC(=O)[C@H]2CN(c3ccc(C(=O)OC(C)(C)C)cn3)CCN2S(=O)(=O)c2ccc(C(F)(F)F)cc2)cc1` [Example 326, 6-[(R)-3-(4-isopropyl-benzylcarbamoyl)-4-(4-trifluoromethyl-benzenesulfonyl)-piperazin-1-yl]-nicotinic acid tert-butyl ester] were 0.1 to 1 µM and 0.1 to 1 µM.
The matching figures for `CC(C)c1ccc(CNC(=O)[C@H]2CN(c3ccc(C(=O)O)cn3)CCN2S(=O)(=O)c2ccc(C(F)(F)F)cc2)cc1` [Example 327, 6-[(R)-3-(4-isopropyl-benzylcarbamoyl)-4-(4-trifluoromethyl-benzenesulfonyl)-piperazin-1-yl]-nicotinic acid trifluoroacetate]: less than 0.1 µM and less than 0.1 µM.
With `CC(C)c1ccc(CNC(=O)[C@H]2CN(c3ncc(C(=O)O)s3)CCN2S(=O)(=O)c2ccc(OC(F)(F)F)cc2)cc1` [Example 328, 2-[(R)-3-(4-isopropyl-benzylcarbamoyl)-4-(4-trifluoromethoxy-benzenesulfonyl)-piperazin-1-yl]-thiazole-5-carboxylic acid], the IC50 in assay [1] and in assay [2] was less than 0.1 µM in each case.

(Values after patent publication US8017612B2, “Piperazine compound and use thereof as a HCV polymerase inhibitor” (priority 2006, dated 2011).)
